A short description of series [1]: Determination of pharmacokinetic parameters after oral gavage of prodrug. It counts as in vivo, dogs. As to conditions: plasma; prodrug dosed orally by gavage, dose equivalent to 0.127 mmol; hplc. Here is the method:
Groups of three dogs were used for each dose level of an experimental compound and one (1) non-cannulated dog was used as a vehicle control. Animals were allowed normal access to chow and water throughout the experiment. The prodrug N-[4-amino-5-(5-iodo-2-isopropyl-4-methoxy-phenoxy)-pyrimidin-2-yl]-2-dipropylamino-acetamide was formulated as an aqueous solution or an aqueous suspension and a dose equivalent to (0.127 mmol) was administered orally by gavage. A blood sample (0.3 mL) was collected from the […] at 0.5, 1, 2, 3, 4, 6 and 8 hours after via the jugular cannula. A sample of at least 0.3 mL of blood was withdrawn from the untreated animals 3 hours after dosing. After 24 hours from dosing, a blood sample was collected from all treated and control animals. Potassium oxalate/NaF was added to the samples which were stored on ice during sampling procedure. The samples were spun in a refrigerated centrifuge at −4° C. as soon as possible and the plasma samples were stored −20° C. immediately after centrifugation and later transferred to a −80° C. freezer until analysis. The concentration of the prodrug N-[4-amino-5-(5-iodo-2-isopropyl-4-methoxy-phenoxy)-pyrimidin-2-yl]-2-dipropylamino-acetamide and the parent compound 5-(5-Iodo-2-isopropyl-4-methoxy-phenoxy)-pyrimidine-2,4-diamine was determined by hplc.

The next series addresses T1, human P2X2/3 receptor (Homo sapiens, UniProt P56373+Q9UBL9).
T1 construct: expressed in transfected cells; host or cells: CHO-K1
T1 sequence (Q9UBL9 1-471): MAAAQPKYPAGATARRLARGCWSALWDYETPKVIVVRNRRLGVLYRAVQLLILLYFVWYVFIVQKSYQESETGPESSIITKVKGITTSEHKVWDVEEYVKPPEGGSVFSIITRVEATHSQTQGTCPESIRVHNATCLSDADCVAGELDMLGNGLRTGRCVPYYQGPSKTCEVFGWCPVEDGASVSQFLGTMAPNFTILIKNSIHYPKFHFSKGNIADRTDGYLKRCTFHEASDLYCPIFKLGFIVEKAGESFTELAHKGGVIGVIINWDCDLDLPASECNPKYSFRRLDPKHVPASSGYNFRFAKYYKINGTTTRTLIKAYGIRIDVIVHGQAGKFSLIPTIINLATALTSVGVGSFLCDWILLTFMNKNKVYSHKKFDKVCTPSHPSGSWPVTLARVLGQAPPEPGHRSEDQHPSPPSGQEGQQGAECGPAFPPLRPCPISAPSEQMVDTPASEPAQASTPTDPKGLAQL
T1 sequence (P56373 1-397): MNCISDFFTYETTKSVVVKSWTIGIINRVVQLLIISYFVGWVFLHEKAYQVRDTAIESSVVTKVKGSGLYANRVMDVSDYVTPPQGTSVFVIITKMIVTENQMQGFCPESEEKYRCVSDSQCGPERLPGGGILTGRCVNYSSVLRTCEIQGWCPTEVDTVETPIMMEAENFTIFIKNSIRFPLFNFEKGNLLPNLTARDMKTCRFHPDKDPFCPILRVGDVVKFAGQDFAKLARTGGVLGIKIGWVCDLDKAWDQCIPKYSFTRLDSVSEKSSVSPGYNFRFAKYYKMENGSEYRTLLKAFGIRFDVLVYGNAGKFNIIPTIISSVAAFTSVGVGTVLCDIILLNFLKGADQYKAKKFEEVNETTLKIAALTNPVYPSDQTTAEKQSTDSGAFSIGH
Kind of series: P2X2/3 FLIPR (Fluorometric Imaging Plate Reader) assay. It counts as cell-based. The conditions noted are these: CHO-K1 cells transfected with human P2X2/3; agonist α,β-meATP 5 μM; FLIPR calcium fluorescence. Here is the method: (§1) CHO-K1 cells were transfected with cloned rat P2X3 or human P2X2/3 receptor subunits and passaged in flasks. 18-24 hours before the FLIPR experiment, cells were released from their flasks, centrifuged, and resuspended in nutrient medium at 2.5×10^5 cells/ml. The cells were aliquoted into black-walled 96-well plates at a density of 50,000 cells/well and incubated overnight in 5% CO2 at 37° C. On the day of the experiment, cells were washed in FLIPR buffer (calcium- and magnesium-free Hank's balanced salt solution, 10 mM HEPES, 2 mM CaCl2, 2.5 mM probenecid; FB). Each well received 100 μl FB and 100 μl of the fluorescent dye Fluo-3 AM [2 μM final conc.]. […]
(§2) Test compounds (dissolved in DMSO at 10 mM and serially diluted with FB) or vehicle were added to each well (25 μl of a 4× solution) and allowed to equilibrate for 20 minutes at room temperature. The plates were then placed in the FLIPR and a baseline fluorescence measurement (excitation at 488 nm and emission at 510-570 nm) was obtained for 10 seconds before a 100 μl/well agonist or vehicle addition. […] Fluorescence was measured for an additional 2 minutes at 1 second intervals after agonist addition. A final addition of ionomycin (5 μM, final concentration) was made to each well of the FLIPR test plate to establish cell viability and maximum fluorescence of dye-bound cytosolic calcium. […]

Another series concerns the target T2, rat P2X3 receptor (Rattus norvegicus, UniProt P49654).
T2 construct: expressed in transfected cells; host or cells: CHO-K1
T2 sequence (P49654 1-397): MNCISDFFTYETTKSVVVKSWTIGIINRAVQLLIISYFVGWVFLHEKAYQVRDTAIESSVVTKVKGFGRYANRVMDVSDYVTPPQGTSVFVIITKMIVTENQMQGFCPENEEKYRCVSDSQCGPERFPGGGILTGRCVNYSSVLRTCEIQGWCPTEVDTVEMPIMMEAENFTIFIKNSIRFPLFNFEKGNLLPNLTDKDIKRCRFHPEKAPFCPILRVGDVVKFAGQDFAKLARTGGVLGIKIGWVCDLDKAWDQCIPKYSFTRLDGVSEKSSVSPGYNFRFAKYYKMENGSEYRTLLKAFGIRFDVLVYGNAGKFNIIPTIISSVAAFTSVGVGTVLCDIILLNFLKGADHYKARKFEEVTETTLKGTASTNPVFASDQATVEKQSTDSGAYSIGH
Kind of series: P2X3 FLIPR (Fluorometric Imaging Plate Reader) assay. It counts as cell-based. As to conditions: CHO-K1 cells transfected with rat P2X3; agonist α,β-meATP 1 μM; FLIPR calcium fluorescence. Here is the method:
as §1, §2

The compound `CCCN(CCC)CC(=O)Nc1ncc(Oc2cc(I)c(OC)cc2C(C)C)c(N)n1` [Compound 2, N-[4-Amino-5-(5-iodo-2-isopropyl-4-methoxy-phenoxy)-pyrimidin-2-yl]-2-dipropylamino-acetamide] displayed a melting point of 129 to 131 °C. Further, in series [1], the “AUC of the prodrug” value amounted to 21.1 ng·h/mL and the “Cmax of the prodrug” value is 15.2 ng/mL.
On to `COc1cc(C(C)C)c(Oc2cnc(NC(=O)CNC3CCCC3)nc2N)cc1I` [Compound 3, N-[4-Amino-5-(5-iodo-2-isopropyl-4-methoxy-phenoxy)-pyrimidin-2-yl]-2-cyclopentylamino-acetamide], for which the melting point was 176.5 to 178 °C.
As to `COc1cc(C(C)C)c(Oc2cnc(NC(=O)C(C)C)nc2N)cc1I` [N-[4-Amino-5-(5-iodo-2-isopropyl-4-methoxy-phenoxy) -pyrimidin-2-yl]-isobutyramide], the “pIC50 for the P2X2/3 receptor” value on human P2X2/3 receptor is listed as ~7.4. At rat P2X3 receptor, the “pIC50 for the P2X3 receptor” value is “approximately 7.8”.

The melting point is the temperature, or range, at which the solid turns liquid.

For the origin of these results see patent US7589090B2, “Diaminopyrimidines as P2X3 and P2X2/3 modulators” (Roche Palo Alto LLC, priority 2007, dated 2009).
